Measurements reported in US20250206761A1, “HALOINDOLE MACROCYCLIC COMPOUNDS FOR THE TREATMENT OF CANCER” (Hoffmann-La Roche Inc., priority 2022, published 2025).

Assays:
[1] = test system: NCI-H358 (ATCC-CRL5807) cells; experiment: Cell viability assay, G12C (NCI-H358); type: cell-based, human; conditions: Homo sapiens; KRAS cell viability, NCI-H358, 72 hrs, Cell Counting Kit-8
How it was run: (§1)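 Cells seeded at 5,000/well (NCI-H358) or 2,000/well (AGS, SW620), treated next day at 0.5% final DMSO for 72 h. Viability read by CCK-8 (OD450 minus OD650) after 2 h; IC50 from 4-parameter sigmoidal fit.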

[2] = test system: AGS (ATCC-CRL-1739) cells; experiment: Cell viability assay, G12D (AGS); type: cell-based, human; conditions: Homo sapiens, KRAS cell viability, 72 hrs, Cell Counting Kit-8
How it was run: as §1

[3] = test system: phosphorylation of ERK, KRAS G12C in NCJ-H358 cells; experiment: pERK inhibition assay, KRAS G12C; type: cell-based, human; conditions: 4 hours
How it was run: (§2)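 In-cell ELISA of phospho-ERK (HRP/TMB, OD450) after formaldehyde fixation and methanol permeabilization; IC50 by 4-parameter sigmoidal fit. Compound incubation 4 h, 0.5% DMSO final, on overnight-attached NCJ-H358, AGS or SW620 cells seeded at 30,000, 20,000 and 30,000 per well.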

[4] = test system: phosphorylation of ERK, KRAS G12V in SW620; experiment: pERK inhibition assay, KRAS G12V; type: cell-based, human
How it was run: as §2

[5] = test system: phosphorylation of ERK, KRAS G12D in AGS cells; experiment: pERK inhibition assay, KRAS G12D; type: cell-based, human; conditions: 4 hours
How it was run: as §2

SW620 (ATCC-CCL-227) = experiment: Cell viability assay, G12V (SW620); type: cell-based, human; conditions: Homo sapiens, SW-620; KRAS cell viability, SW620, 72 hrs, Cell Counting Kit-8
How it was run: as §1

[6] = test system: cryopreserved suspension hepatocytes from human; experiment: Human hepatocyte stability assay; type: in vitro ADME
Protocol: The hepatocyte stability assay measures the rate of disappearance of a compound from incubations with cryopreserved suspension hepatocytes from human. Positive controls, including Midazolam, Raloxifene and Dextromethorphan, are included in every experiment. Incubations consist of […] tested compound and suspension of human hepatocytes (1×10^6 cells/mL) in supplemented Williams' E Medium with 10% FBS and 0.5% Penicillin-streptomycin. The hepatocyte suspension was incubated with intermittent shaking 900 rpm at 37° C., in a 5% CO2 incubator. The reaction was stopped by adding methanol containing internal standard (2 μM Tolbutamide) at 2, 10, 20, 40, 60 and 120 minutes after compound addition, depletion of the parent compound was monitored by LC-MS/MS analysis.

KRAS G12C-BRAF complex [7] = biological target: T1, KRAS G12C-BRAF complex (Homo sapiens (Human), UniProt P01116+P62937, G12C); experiment: KRAS G12C-BRAF NanoBit assay; type: cell-based; conditions: HEK293 cells, 3 hours of incubation
T1 sequence (P01116-2 other isoform, or with tags, fused parts or gaps G12C): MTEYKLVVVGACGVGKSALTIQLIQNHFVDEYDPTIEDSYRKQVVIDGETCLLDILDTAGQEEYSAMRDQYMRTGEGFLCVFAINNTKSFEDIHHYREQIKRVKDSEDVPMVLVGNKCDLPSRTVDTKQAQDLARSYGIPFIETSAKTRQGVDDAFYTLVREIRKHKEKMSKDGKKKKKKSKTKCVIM
T1 sequence (P62937 whole entry): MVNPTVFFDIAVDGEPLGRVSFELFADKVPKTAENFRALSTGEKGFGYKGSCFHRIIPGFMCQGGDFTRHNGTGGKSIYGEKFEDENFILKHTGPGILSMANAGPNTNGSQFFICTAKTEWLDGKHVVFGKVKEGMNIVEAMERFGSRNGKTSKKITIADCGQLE
Protocol: This assay is to measure the ability of tested compounds in disruption of the KRAS G12C-BRAF complex at the cellular level, we established the NanoBit cellular assay in mammalian HEK293 (ATCC) cells.
HEK293 cells were grown and maintained using DMEM medium (Thermo Fisher Scientific) with 10% fetal bovine serum and 1% penicillin/streptomycin. Both KRAS G12C and BRAF RBD were cloned into the NanoBit vectors ([…] vectors system, Promega) with the orientations SnmBit-KRAS G12C and BRAF RBD-LgBit, respectively, and co-transfected into HEK293 cells. Cells were then selected with 100 μg/mL Hygromycin B (10687010, Thermo Fisher) and Blasticidin (5 μg/mL) for 4 weeks to get the stable cell pool.
On the day of the assay, 75 nL of compound solution was presented in a 384-well assay plate as a 16-point 3-fold dilution starting from a final concentration of 30 μM in DMSO. Then cells were seeded at 10,000 cells/25 μL/well in a 384-well plate. After 3 hours of incubation, 6 μL of volume of Nano-Glo® Live Cell Substrate (Promega) was added into each well. Monitor luminescence using ultra384 model in Envision at 20 minutes. Compounds that facilitate disruption of the KRAS G12C-BRAF RBD complex were identified as those eliciting a decrease of luminescence relative to DMSO control wells.

[8] = biological target: KRAS G12V binding to BRAF (Homo sapiens (Human), UniProt P01116+P62937, G12V); experiment: KRAS-BRAF with CYPA (500 nM) interaction assay (TR-FRET), G12V; type: biochemical
Sequence of KRAS G12V binding to BRAF (P01116-2 other isoform, or with tags, fused parts or gaps G12V): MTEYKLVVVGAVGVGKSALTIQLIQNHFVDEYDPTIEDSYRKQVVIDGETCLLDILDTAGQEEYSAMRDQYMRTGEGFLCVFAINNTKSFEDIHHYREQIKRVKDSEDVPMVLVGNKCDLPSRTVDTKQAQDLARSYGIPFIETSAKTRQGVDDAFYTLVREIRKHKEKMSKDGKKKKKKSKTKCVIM
Sequence of KRAS G12V binding to BRAF (P62937 whole entry): as the sequence (P62937 whole entry) above
How it was run: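 A TR-FRET assay measured how compound, in the presence of CYPA, disrupts binding of GMPPNP-loaded 6His-KRAS G12V to BRAF. The buffer contained 25 mM HEPES PH=7.4, 0.002% Tween20, 0.1% BSA, 100 mM NaCl, 5 mM MgCl2 and 10 μM GMPPNP. Compounds ran as a 16-point 3-fold dilution series from 10 μM for 3 hours.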

KRAS G12C-BRAF complex [9] = biological target: T1, KRAS G12C-BRAF complex; experiment: KRAS-BRAF with CYPA (500 nM) interaction assay (TR-FRET), G12C; type: biochemical
[10] = biological target: KRAS G12D binding to BRAF (Homo sapiens (Human), UniProt P01116+P62937, G12D); experiment: KRAS-BRAF with CYPA (500 nM) interaction assay (TR-FRET), G12D; type: biochemical
Sequence of KRAS G12D binding to BRAF (P01116-2 other isoform, or with tags, fused parts or gaps G12D): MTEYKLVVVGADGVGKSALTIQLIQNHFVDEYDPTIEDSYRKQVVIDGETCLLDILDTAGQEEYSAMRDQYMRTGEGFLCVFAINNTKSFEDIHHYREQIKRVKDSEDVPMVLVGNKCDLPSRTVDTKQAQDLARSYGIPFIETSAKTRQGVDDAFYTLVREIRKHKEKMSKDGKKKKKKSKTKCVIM
Sequence of KRAS G12D binding to BRAF (P62937 whole entry): as the sequence (P62937 whole entry) above

[11] = Homo sapiens, SW-620, SW620, 4 hours

Compound	IC50 [1] [nM]	IC50 [2] [nM]	IC50 ([3]; Homo sapiens) [nM]	IC50 [4, 11] [nM]	IC50 ([5]; Homo sapiens) [nM]	IC50 (SW620 (ATCC-CCL-227)) [nM]	CL_hep (Human) ([6]; human hepatocytes 1×10^6 cells/mL, 37° C.) [mL/min/kg]	IC50 (KRAS G12C-BRAF complex [7]) [nM]	Clearance Category ([6]; human hepatocytes)	IC50 [8] [nM]	IC50 [3] [nM]	IC50 ([4]; SW620, 4 hours) [nM]	IC50 [5] [nM]	IC50 (KRAS G12C-BRAF complex [9]) [nM]	IC50 [10] [nM]
CO[C@@H](C)c1ncc(N2CCN(C)CC2)cc1-c1c2c3cc(c(F)cc3n1CC(F)(F)F)-c1csc(n1)C[C@H](NC(=O)[C@H](COC1CN(C(=O)[C@H](F)Cl)C1)C(C)C)C(=O)N1CCC[C@H](N1)C(=O)OCC(C)(C)C2 (atropisomer, axis not shown; (M)) [Example 14, (2S)-2-[[1-[(2R)-2-chloro-2-fluoro-acetyl]azetidin-3-yl]oxymethyl]-N-[(7S,13S)-24-fluoro-(20M)-20-[2-[(1S)-1-methoxyethyl]-5-(4-methylpiperazin-1-yl)-3-pyridyl]-17,17-dimethyl-8,14-dioxo-21-(2,2,2-trifluoroethyl)-15-oxa-4-thia-9,21,27,28-tetrazapentacyclo[17.5.2.1^2,5.1^9,13.0^22,26]octacosa-1(25),2,5(28),19,22(26),23-hexaen-7-yl]-3-methyl-butanamide]	–	–	33	78	170	–	–	106	–	–	–	–	–	–	–
CO[C@@H](C)c1ncc(N2CCOCC2)cc1-c1c2c3cc(c(F)cc3n1CC(F)(F)F)-c1csc(n1)C[C@H](NC(=O)[C@H](C(C)C)N1CCC3(CN(C(=O)[C@H](F)Cl)C3)C1=O)C(=O)N1CCC[C@H](N1)C(=O)OCC(C)(C)C2 (atropisomer, axis not shown; (M)) [Example 58, (2S)-2-[2-[(2R)-2-chloro-2-fluoro-acetyl]-5-oxo-2,6-diazaspiro[3.4]octan-6-yl]-N-[(7S,13S)-24-fluoro-(20M)-20-[2-[(1S)-1-methoxyethyl]-5-morpholino-3-pyridyl]-17,17-dimethyl-8,14-dioxo-21-(2,2,2-trifluoroethyl)-15-oxa-4-thia-9,21,27,28-tetrazapentacyclo[17.5.2.1^2,5.1^9,13.0^22,26]octacosa-1(25),2,5(28),19,22(26),23-hexaen-7-yl]-3-methyl-butanamide]	5	1500	12	41	124	130	–	54	–	–	–	–	–	–	–
CCn1c(-c2cc(N3CCN(C)CC3)cnc2[C@H](C)OC)c2c3cc(c(F)cc31)-c1csc(n1)C[C@H](NC(=O)[C@H](C(C)C)N1CCC[C@]3(CCN(C(=O)[C@@H](F)Cl)C3)C1=O)C(=O)N1CCC[C@H](N1)C(=O)OCC(C)(C)C2 [Example 22, (2S)-2-[(5R)-2-[(2S)-2-chloro-2-fluoro-acetyl]-6-oxo-2,7-diazaspiro[4.5]decan-7-yl]-N-[(7S,13S)-21-ethyl-24-fluoro-(20M)-20-[2-[(1S)-1-methoxyethyl]-5-(4-methylpiperazin-1-yl)-3-pyridyl]-17,17-dimethyl-8,14-dioxo-15-oxa-4-thia-9,21,27,28-tetrazapentacyclo[17.5.2.1^2,5.1^9,13.0^22,26]octacosa-1(25),2,5(28),19,22(26),23-hexaen-7-yl]-3-methyl-butanamide]	–	–	–	–	–	–	–	209	–	> 10000	53	1020	1060	199	> 10000

More lines, in order of falling IC50 ([3]; Homo sapiens), values ahead:

IC50 [1] [nM]	IC50 [2] [nM]	IC50 ([3]; Homo sapiens) [nM]	IC50 [4, 11] [nM]	IC50 ([5]; Homo sapiens) [nM]	IC50 (SW620 (ATCC-CCL-227)) [nM]	CL_hep (Human) ([6]; human hepatocytes 1×10^6 cells/mL, 37° C.) [mL/min/kg]	IC50 (KRAS G12C-BRAF complex [7]) [nM]	Compound	Clearance Category ([6]; human hepatocytes)	IC50 [8] [nM]	IC50 [3] [nM]	IC50 ([4]; SW620, 4 hours) [nM]	IC50 [5] [nM]	IC50 (KRAS G12C-BRAF complex [9]) [nM]	IC50 [10] [nM]
3	1300	6	33	57	59	–	23	CO[C@@H](C)c1ncc(N2CCOCC2)cc1-c1c2c3cc(c(F)cc3n1CC(F)(F)F)-c1csc(n1)C[C@H](NC(=O)[C@H](C(C)C)N1CC[C@]3(CCN(C(=O)[C@H](F)Cl)C3)C1=O)C(=O)N1CCC[C@H](N1)C(=O)OCC(C)(C)C2 (atropisomer, axis not shown; (M)) [Example 57, (2S)-2-[(5S)-7-[(2R)-2-chloro-2-fluoro-acetyl]-1-oxo-2,7-diazaspiro[4.4]nonan-2-yl]-N-[(7S,13S)-24-fluoro-(20M)-20-[2-[(1S)-1-methoxyethyl]-5-morpholino-3-pyridyl]-17,17-dimethyl-8,14-dioxo-21-(2,2,2-trifluoroethyl)-15-oxa-4-thia-9,21,27,28-tetrazapentacyclo[17.5.2.1^2,5.1^9,13.0^22,26]octacosa-1(25),2,5(28),19,22(26),23-hexaen-7-yl]-3-methyl-butanamide]	–	–	–	–	–	–	–
2	2240	2	26	48	42	12.5	–	CO[C@@H](C)c1ncc(N2CCN(C)CC2)cc1-c1c2c3cc(c(F)cc3n1CC(F)(F)F)-c1csc(n1)C[C@H](NC(=O)[C@H](C(C)C)N1CC[C@]3(CCN(C(=O)[C@H](F)Cl)C3)C1=O)C(=O)N1CCC[C@H](N1)C(=O)OCC(C)(C)C2 (atropisomer, axis not shown; (M)) [Example 5, (2S)-2-[(5S)-7-[(2R)-2-chloro-2-fluoro-acetyl]-1-oxo-2,7-diazaspiro[4.4]nonan-2-yl]-N-[(7S,13S)-24-fluoro-(20M)-20-[2-[(1S)-1-methoxyethyl]-5-(4-methylpiperazin-1-yl)-3-pyridyl]-17,17-dimethyl-8,14-dioxo-21-(2,2,2-trifluoroethyl)-15-oxa-4-thia-9,21,27,28-tetrazapentacyclo[17.5.2.1^2,5.1^9,13.0^22,26]octacosa-1(25),2,5(28),19,22(26),23-hexaen-7-yl]-3-methyl-butanamide]	medium (16.24>CL_hep (mL/min/kg)>6.96 is medium clearance)	–	–	–	–	–	–
< 1	1230	1	45	12	447	–	11000	CCn1c(-c2cc(N3CCN(C)CC3)cnc2[C@H](C)OC)c2c3cc(c(F)cc31)-c1csc(n1)C[C@H](NC(=O)[C@H](C(C)C)N1CCC3(CN(C(=O)[C@H](F)Cl)C3)C1=O)C(=O)N1CCC[C@H](N1)C(=O)OCC(C)(C)C2 (atropisomer, axis not shown; (M)) [Example 29, (2S)-2-[2-[(2R)-2-chloro-2-fluoro-acetyl]-5-oxo-2,6-diazaspiro[3.4]octan-6-yl]-N-[(7S,13S)-21-ethyl-24-fluoro-(20M)-20-[2-[(1S)-1-methoxyethyl]-5-(4-methylpiperazin-1-yl)-3-pyridyl]-17,17-dimethyl-8,14-dioxo-15-oxa-4-thia-9,21,27,28-tetrazapentacyclo[17.5.2.1^2,5.1^9,13.0^22,26]octacosa-1(25),2,5(28),19,22(26),23-hexaen-7-yl]-3-methyl-butanamide]	–	–	–	–	–	–	–
